PubChem BioAssay (NCI)
Several values for one entry are separate records, joined by “and”; a condition that tells them apart may be missing. Identical values can stand only once.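 Growth conditions: 96-well plates. Treatment: test compound, 48 hours, 5 concentrations. Analysis: linear interpolation between bracketing concentrations; unreached endpoints set to highest concentration. GI50 = concentration required for 50% inhibition of growth. Definition used: TGI = concentration required for complete inhibition of growth.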

Assays:
Test in all cases: NCI tumour cell line growth inhibition, 48 h
[1] = tested on: HL-60(TB) leukemia
[2] = tested on: NCI-H23 lung
[3] = tested on: SF-539 CNS
[4] = tested on: SR leukemia
[5] = tested on: NCI-H460 lung
[6] = tested on: SK-MEL-2 melanoma
[7] = tested on: SW-620 colon
[8] = tested on: HS 578T breast

Row | Structure (SMILES) | GI50 [1] | TGI [1] [µM] | GI50 [2] | TGI [2] [µM] | GI50 [3] | TGI [3] [µM] | GI50 [4] [µM] | TGI [4] [µM] | GI50 [5] [µM] | TGI [5] [µM] | GI50 [6] | TGI [6] [µM] | GI50 [7] | TGI [7] [µM] | GI50 [8] [µM] | TGI [8] [µM]
1 | O=S(=O)(Nc1ccccc1)c1ccc(C2CC3(Cl)C(Cl)=C(Cl)C2(Cl)C3(Cl)Cl)cc1 (stereo unspecified) | 2.42 µM | 5.79 | 2.8 µM | 7.35 | 2.32 µM | 5.79 | 2.08 | 5.2 | 1.96 | 3.72 | 2.23 µM | 4.16 | – | – | – | –
2 | CNS(=O)(=O)Nc1nccc(Cc2c(C)c3ccc(Oc4ncccn4)cc3oc2=O)c1F | 0.0449 µM and 0.00891 µM | > 100 | 0.061 µM and 0.148 µM | > 100 | 61.5 µM and > 10 µM | > 100 | > 100 | > 100 | > 62 | > 100 | < 0.01 µM and 0.00879 µM | > 100 | 0.0194 µM and 0.0159 µM | > 100 | > 100 | > 100
3 | C=CCN(CC=C)Cc1c[nH]c2ccccc12 | 84.2 µM | > 100 | 14 µM | 52.8 | – | – | 30.3 | > 100 | 21.8 | 62.3 | 15.3 µM | 38.3 | 26.3 µM | > 100 | – | –
4 | O=C1c2ccccc2-c2c1c1c(O)cccc1n2Cc1ccccc1 | – | – | 5.67 µM | 29.7 | 14.2 µM | 35.3 | 30.5 | > 100 | 10.3 | 45.6 | 39.7 µM | > 100 | 38 µM | > 100 | 10.3 | 32.8
5 | c1cc(OCCCCCOc2cccc(-c3nc4ccccc4[nH]3)c2)cc(-c2nc3ccccc3[nH]2)c1 | – | – | – | – | 5.08 µM | > 100 | – | – | 2.6 | > 100 | 2.05 µM | 5.67 | 2.87 µM | > 100 | 2.56 | 8.51
6 | N#CC1=C(N)Oc2c(ccc3ccccc23)C1c1cc2ccccc2n2nnnc12 (stereo unspecified) | 0.26 µM | 16.7 | 3.45 µM | > 100 | – | – | 0.232 | > 100 | 0.496 | > 100 | 0.616 µM | 6.84 | 0.467 µM | > 100 | 1.51 | 49.3
7 | O=C(CCN1CCOCC1)Nc1ccc(Cn2nnc3c2C(=O)c2nnn(Cc4ccc(NC(=O)CCN5CCOCC5)cc4)c2C3=O)cc1 | 1.14 µM | 4.63 | 1.43 µM | 5.52 | 0.913 µM | 5.11 | 1.68 | 7.62 | 0.569 | > 100 | – | – | 2.58 µM | > 100 | 3.03 | 24.9
8 | CN(C)[C@@H]1C(=O)C(C(=O)NCc2nc3[nH]cnc(=S)c3[nH]2)=C(O)[C@@]2(O)C(=O)C3=C(O)c4c(O)cccc4[C@@](C)(O)[C@H]3C[C@@H]12 | – | – | 8.85 µM | > 100 | 3.67 µM | > 100 | 1.92 | > 100 | 19.1 | > 100 | > 100 µM | > 100 | 17 µM | > 100 | > 100 | > 100
